Measured values from ChEMBL document CHEMBL4000244, “Probing A-form DNA: A fluorescent aminosugar probe and dual recognition by anthraquinone-neomycin conjugates” (Bioorg Med Chem, 2017).

Key:
[1] = Binding affinity to 5'-GGCCCCCC-3' DNA hairpin assessed as change in fluorescence intensity at 1 uM after 45 mins by fluorescence quenching analysis relative to control
[2] = Binding affinity to 5'-CCCCCCCG-3' DNA hairpin assessed as change in fluorescence intensity at 1 uM after 45 mins by fluorescence quenching analysis relative to control
[3] = Binding affinity to 5'-GGGGGGGC-3' DNA hairpin assessed as change in fluorescence intensity at 1 uM after 45 mins by fluorescence quenching analysis relative to control
[4] = Binding affinity to 5'-GGCCCGCC-3' DNA hairpin assessed as change in fluorescence intensity at 1 uM after 45 mins by fluorescence quenching analysis relative to control
[5] = Binding affinity to 5'-GCCCGGCC-3' DNA hairpin assessed as change in fluorescence intensity at 1 uM after 45 mins by fluorescence quenching analysis relative to control
[6] = Binding affinity to 5'-CGCCCCGC-3' DNA hairpin assessed as change in fluorescence intensity at 1 uM after 45 mins by fluorescence quenching analysis relative to control
[7] = Binding affinity to 5'-CCCGGGCG-3' DNA hairpin assessed as change in fluorescence intensity at 1 uM after 45 mins by fluorescence quenching analysis relative to control
[8] = Binding affinity to 5'-CCGGCCCC-3' DNA hairpin assessed as change in fluorescence intensity at 1 uM after 45 mins by fluorescence quenching analysis relative to control
[9] = Binding affinity to 5'-GCGGGGCC-3' DNA hairpin assessed as change in fluorescence intensity at 1 uM after 45 mins by fluorescence quenching analysis relative to control
[10] = Binding affinity to 5'-CGGGGCCC-3' DNA hairpin assessed as change in fluorescence intensity at 1 uM after 45 mins by fluorescence quenching analysis relative to control
[11] = Binding affinity to 5'-GCCCGCGC-3' DNA hairpin assessed as change in fluorescence intensity at 1 uM after 45 mins by fluorescence quenching analysis relative to control
[12] = Binding affinity to 5'-GGCGGGGG-3' DNA hairpin assessed as change in fluorescence intensity at 1 uM after 45 mins by fluorescence quenching analysis relative to control
[13] = Binding affinity to 5'-CGCCCGCC-3' DNA hairpin assessed as change in fluorescence intensity at 1 uM after 45 mins by fluorescence quenching analysis relative to control
[14] = Binding affinity to 5'-CCGGGCGC-3' DNA hairpin assessed as change in fluorescence intensity at 1 uM after 45 mins by fluorescence quenching analysis relative to control
[15] = Binding affinity to 5'-GGCCGGGC-3' DNA hairpin assessed as change in fluorescence intensity at 1 uM after 45 mins by fluorescence quenching analysis relative to control
[16] = Binding affinity to 5'-GCGGCGCG-3' DNA hairpin assessed as change in fluorescence intensity at 1 uM after 45 mins by fluorescence quenching analysis relative to control
[17] = Binding affinity to 5'-CGGCGGCG-3' DNA hairpin assessed as change in fluorescence intensity at 1 uM after 45 mins by fluorescence quenching analysis relative to control
[18] = Binding affinity to 5'-CCCGCCCC-3' DNA hairpin assessed as change in fluorescence intensity at 1 uM after 45 mins by fluorescence quenching analysis relative to control
[19] = Binding affinity to 5'-CGCCCGGG-3' DNA hairpin assessed as change in fluorescence intensity at 1 uM after 45 mins by fluorescence quenching analysis relative to control
[20] = Binding affinity to 5'-GGCCGGCG-3' DNA hairpin assessed as change in fluorescence intensity at 1 uM after 45 mins by fluorescence quenching analysis relative to control
[21] = Binding affinity to 5'-CCGCCCCG-3' DNA hairpin assessed as change in fluorescence intensity at 1 uM after 45 mins by fluorescence quenching analysis relative to control
[22] = Binding affinity to 5'-GGGCGGCC-3' DNA hairpin assessed as change in fluorescence intensity at 1 uM after 45 mins by fluorescence quenching analysis relative to control
[23] = Binding affinity to 5'-CGCCGGGC-3' DNA hairpin assessed as change in fluorescence intensity at 1 uM after 45 mins by fluorescence quenching analysis relative to control
[24] = Binding affinity to 5'-CCCCGGCG-3' DNA hairpin assessed as change in fluorescence intensity at 1 uM after 45 mins by fluorescence quenching analysis relative to control
[25] = Binding affinity to 5'-CCGGGCGG-3' DNA hairpin assessed as change in fluorescence intensity at 1 uM after 45 mins by fluorescence quenching analysis relative to control
[26] = Binding affinity to 5'-GCGCGGCC-3' DNA hairpin assessed as change in fluorescence intensity at 1 uM after 45 mins by fluorescence quenching analysis relative to control
[27] = Binding affinity to 5'-GGGCGCCG-3' DNA hairpin assessed as change in fluorescence intensity at 1 uM after 45 mins by fluorescence quenching analysis relative to control
[28] = Binding affinity to 5'-CGGCGGGG-3' DNA hairpin assessed as change in fluorescence intensity at 1 uM after 45 mins by fluorescence quenching analysis relative to control
[29] = Binding affinity to 5'-CGCCGGCG-3' DNA hairpin assessed as change in fluorescence intensity at 1 uM after 45 mins by fluorescence quenching analysis relative to control
[30] = Binding affinity to 5'-GCCGGGCC-3' DNA hairpin assessed as change in fluorescence intensity at 1 uM after 45 mins by fluorescence quenching analysis relative to control
[31] = Binding affinity to 5'-GGGCGCGG-3' DNA hairpin assessed as change in fluorescence intensity at 1 uM after 45 mins by fluorescence quenching analysis relative to control
[32] = Binding affinity to 5'-CGGGCCGC-3' DNA hairpin assessed as change in fluorescence intensity at 1 uM after 45 mins by fluorescence quenching analysis relative to control
[33] = Binding affinity to 5'-CCGCCGGC-3' DNA hairpin assessed as change in fluorescence intensity at 1 uM after 45 mins by fluorescence quenching analysis relative to control
[34] = Binding affinity to 5'-GGGCGGCG-3' DNA hairpin assessed as change in fluorescence intensity at 1 uM after 45 mins by fluorescence quenching analysis relative to control
[35] = Binding affinity to 5'-CCCCGCGG-3' DNA hairpin assessed as change in fluorescence intensity at 1 uM after 45 mins by fluorescence quenching analysis relative to control
[36] = Binding affinity to 5'-GGCGCGCG-3' DNA hairpin assessed as change in fluorescence intensity at 1 uM after 45 mins by fluorescence quenching analysis relative to control

## NCC1O[C@H](O[C@H]2[C@@H](O)[C@H](O[C@@H]3[C@@H](O)[C@H](N)C[C@H](N)[C@H]3O[C@H]3O[C@H](CN)[C@@H](O)[C@H](O)[C@H]3N)O[C@@H]2CSCCNC(=O)CCSCC(=O)Nc2ccc(-c3c4ccc(=O)cc-4oc4cc(O)ccc34)c(C(=O)O)c2)[C@H](N)[C@@H](O)[C@@H]1O (stereo partly specified)
[1]
  Activity: 15%
[2]
  Activity: 19.9%
[3]
  Activity: 29.8%
[4]
  Activity: 31.2%
[5]
  Activity: 36.2%
[6]
  Activity: 38%
[7]
  Activity: 39%
[8]
  Activity: 39.4%
[9]
  Activity: 40.4%
[10]
  Activity: 40.4%
[11]
  Activity: 40.4%
[12]
  Activity: 41.5%
[13]
  Activity: 42%
[14]
  Activity: 43.6%
[15]
  Activity: 45.6%
[16]
  Activity: 45.8%
[17]
  Activity: 46.5%
[18]
  Activity: 46.7%
[19]
  Activity: 47.2%
[20]
  Activity: 47.6%
[21]
  Activity: 49.3%
[22]
  Activity: 49.4%
[23]
  Activity: 49.5%
[24]
  Activity: 50%
[25]
  Activity: 50.1%
[26]
  Activity: 50.4%
[27]
  Activity: 50.6%
[28]
  Activity: 50.8%
[29]
  Activity: 50.8%
[30]
  Activity: 51%
[31]
  Activity: 51.5%
[32]
  Activity: 52.5%
[33]
  Activity: 52.6%
[34]
  Activity: 52.7%
[35]
  Activity: 53.3%
[36]
  Activity: 57.1%
